Measured values published in patent US20220089592A1, “IMIDAZO[1,2-A]PYRIDINYL DERIVATIVES AS IRAK4 INHIBITORS” (priority 2019, published 2022).

Tests used:
IRAK4 [1] = molecular target: T1, IRAK4 (Homo sapiens, UniProt Q9NWZ3); test: 2-hour 1 mM ATP IRAK4 Biochemical assay (as above, but with 100 pM IRAK4 and 1 mM ATP); details: IRAK4 MSD BIOCHEMICAL (1 mM ATP) IC50 (μM), 100 pM IRAK4, 2 hours
T1 sequence (Q9NWZ3 1-460): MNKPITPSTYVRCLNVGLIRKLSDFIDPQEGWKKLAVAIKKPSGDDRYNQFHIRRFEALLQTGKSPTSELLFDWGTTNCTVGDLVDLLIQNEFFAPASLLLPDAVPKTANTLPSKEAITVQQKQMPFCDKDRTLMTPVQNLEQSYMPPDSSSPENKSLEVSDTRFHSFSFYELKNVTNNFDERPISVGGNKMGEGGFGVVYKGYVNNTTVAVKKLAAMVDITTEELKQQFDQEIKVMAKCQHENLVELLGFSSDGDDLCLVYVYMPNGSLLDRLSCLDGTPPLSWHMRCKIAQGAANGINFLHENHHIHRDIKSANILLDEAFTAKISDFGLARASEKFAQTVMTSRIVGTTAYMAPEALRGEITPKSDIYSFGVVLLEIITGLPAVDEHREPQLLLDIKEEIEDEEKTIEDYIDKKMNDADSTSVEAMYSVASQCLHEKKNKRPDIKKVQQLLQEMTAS
How it was run: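 Run with 100 pM IRAK4 and 1 mM ATP for 2 hours, quenched with EDTA pH 8. Phosphorylated biotinylated peptide captured on streptavidin MSD plates and detected with anti-phosphothreonine antibody plus Sulfo-Tag secondary by electrochemiluminescence.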

IRAK4 [2] = molecular target: T1, IRAK4; test: 2-hour 10 μM ATP Biochemical Assay (MesoScale Detection format; IRAK4 phosphorylation of biotin labeled IRAK1 activation loop peptide); details: IRAK4 MSD BIOCHEMICAL (10 μM ATP) IC50 (μM), 1 nM IRAK4, 2 hours
How it was run: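 Kinase reaction run 2 h at 10 μM ATP with biotinylated IRAK1 activation-loop peptide, quenched with EDTA. Phospho-peptide captured on streptavidin MSD plates and detected with anti-phosphothreonine rabbit antibody plus Sulfo-Tag anti-rabbit electrochemiluminescence.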

SMILES | IC50 (IRAK4 [1]) [µM] | IC50 (IRAK4 [2]) [µM]
CCc1cn2cc(NC(=O)c3cccc(C(F)F)n3)cc(F)c2n1 [Example 76, 6-(difluoromethyl)-N-(2-ethyl-8-fluoroimidazo[1,2-a]pyridin-6-yl)picolinamide] | – | 0.17
O=C(Nc1cnc2nc(C3CC3)cn2c1)c1cccc(C(F)(F)F)n1 [Example 92, N-(2-cyclopropylimidazo[1,2-a]pyrimidin-6-yl)-6-(trifluoromethyl)picolinamide] | – | 0.076
CCOc1cc2nc(C3CCOCC3)cn2cc1NC(=O)c1ccnc(OC)n1 [Example 226, N-(7-ethoxy-2-(tetrahydro-2H-pyran-4-yl)imidazo[1,2-a]pyridin-6-yl)-2-methoxypyrimidine-4-carboxamide] | – | 0.035
CCOc1cc2nc(CC)cn2cc1NC(=O)c1ccc(Cl)cn1 [Example 46, 5-chloro-N-(7-ethoxy-2-ethylimidazo[1,2-a]pyridin-6-yl)picolinamide] | – | 0.083
CCOc1cc2nc(CC)cn2cc1NC(=O)c1ccc2c(c1)CCOC2 [Example 47, N-(7-ethoxy-2-ethylimidazo[1,2-a]pyridin-6-yl)isochromane-6-carboxamide] | – | 1.1
COc1nc(NC(=O)c2ccn(CC(F)F)n2)cn2cc(C3CCOCC3)nc12 [Example 452, 1-(2,2-difluoroethyl)-N-(8-methoxy-2-(tetrahydro-2H-pyran-4-yl)imidazo[1,2-a]pyrazin-6-yl)-1H-pyrazole-3-carboxamide] | – | 0.031
CC(COc1cc2nc(C3CC3)cn2cc1NC(=O)c1cccc(C(F)F)n1)n1ccccc1=O (stereo not drawn) [Example 6, N-(2-cyclopropyl-7-(2-(2-oxopyridin-1(2H)-yl)propoxy)imidazo[1,2-a]pyridin-6-yl)-6-(difluoromethyl)picolinamide] | – | 0.19
O=C(Nc1cn2cc(C3CCOCC3)nc2cn1)c1cnn(C(F)F)c1 [Example 162, 1-(difluoromethyl)-N-(2-(tetrahydro-2H-pyran-4-yl)imidazo[1,2-a]pyrazin-6-yl)-1H-pyrazole-4-carboxamide] | – | 0.37
CCOc1cc2nc(CN3CCOCC3)cn2cc1NC(=O)c1cccc(C(F)F)n1 [Example 121, 6-(difluoromethyl)-N-(7-ethoxy-2-(morpholinomethyl)imidazo[1,2-a]pyridin-6-yl)picolinamide] | – | 2.21
CCOc1cc2nc(C3CC3)cn2cc1NC(=O)c1cccc(C(F)(F)F)c1 [Example 54, N-(2-cyclopropyl-7-ethoxyimidazo[1,2-a]pyridin-6-yl)-3-(trifluoromethyl)benzamide] | – | 0.14
CCOc1cc2nc(CC)cn2cc1NC(=O)c1ccc2c(c1)OCC2 [Example 42, N-(7-ethoxy-2-ethylimidazo[1,2-a]pyridin-6-yl)-2,3-dihydrobenzofuran-6-carboxamide] | – | 1.3
CCOc1cc2nc(CC)cn2cc1NC(=O)c1ccc(F)c(F)c1 [Example 35, N-(7-ethoxy-2-ethylimidazo[1,2-a]pyridin-6-yl)-3,4-difluorobenzamide] | – | 2.5
CC1(COc2cc3nc(C4CCOCC4)cn3cc2NC(=O)c2cnn(C(F)F)c2)COC1 [Example 161, 1-(difluoromethyl)-N-(7-((3-methyloxetan-3-yl)methoxy)-2-(tetrahydro-2H-pyran-4-yl)imidazo[1,2-a]pyridin-6-yl)-1H-pyrazole-4-carboxamide] | – | 0.4

Stronger by IC50 (IRAK4 [2]), values ahead:

IC50 (IRAK4 [1]) [µM] | IC50 (IRAK4 [2]) [µM] | SMILES
0.033 | 0.015 | O=C(Nc1ccc2nc(C3CCOCC3)cn2c1)c1cccc(C(F)F)n1 [Example 356, 6-(difluoromethyl)-N-(2-(tetrahydro-2H-pyran-4-yl)imidazo[1,2-a]pyridin-6-yl)picolinamide]
0.051 | 0.006 | CCOc1cc2nc(CC3CCOC3)cn2cc1NC(=O)c1coc(C)n1 (stereo not drawn) [Example 159, N-(7-ethoxy-2-((tetrahydrofuran-3-yl)methyl)imidazo[1,2-a]pyridin-6-yl)-2-methyloxazole-4-carboxamide]
0.014 | 0.004 | CCOc1cc2nc(CO)cn2cc1NC(=O)c1cccc(C(F)(F)F)n1 [Example 18, N-(7-ethoxy-2-(hydroxymethyl)imidazo[1,2-a]pyridin-6-yl)-6-(trifluoromethyl)picolinamide]
0.001 | 0.001 | CCOc1cc2nc(C3CCN(C(C)=O)CC3)cn2cc1NC(=O)c1cccc(C(F)(F)F)n1 [Example 72, N-(2-(1-acetylpiperidin-4-yl)-7-ethoxyimidazo[1,2-a]pyridin-6-yl)-6-(trifluoromethyl)picolinamide]
0.003 | 0.001 | CCOc1cc2nc(C3CCOCC3)cn2cc1NC(=O)c1ccn(C(F)F)n1 [Example 230, 1-(difluoromethyl)-N-(7-ethoxy-2-(tetrahydro-2H-pyran-4-yl)imidazo[1,2-a]pyridin-6-yl)-1H-pyrazole-3-carboxamide]
0.001 | 0.001 | CCOc1cc2nc(C3CN(C(C)=O)C3)cn2cc1NC(=O)c1cccc(C(F)F)n1 [Example 81, N-(2-(1-acetylazetidin-3-yl)-7-ethoxyimidazo[1,2-a]pyridin-6-yl)-6-(difluoromethyl)picolinamide]
0.001 | 0.001 | CCOc1cc2nc(C34CC(COC)(C3)C4)cn2cc1NC(=O)c1cccc(C(F)(F)F)n1 [Example 523, N-(7-ethoxy-2-(3-(methoxymethyl)bicyclo[1.1.1]pentan-1-yl)imidazo[1,2-a]pyridin-6-yl)-6-(trifluoromethyl)picolinamide]
– | 0.001 | CCOc1cc2nc([C@H]3C[C@H](OC)C3)cn2cc1NC(=O)c1cccc(C(F)F)n1 [Example 114, 6-(difluoromethyl)-N-(7-ethoxy-2-((1r,3r)-3-methoxycyclobutyl)imidazo[1,2-a]pyridin-6-yl)picolinamide]
– | 0.026 | COc1cc(NC(=O)c2csc(C)n2)cn2cc(C3CCOCC3)nc12 [Example 305, N-(8-methoxy-2-(tetrahydro-2H-pyran-4-yl)imidazo[1,2-a]pyridin-6-yl)-2-methylthiazole-4-carboxamide]
– | 0.001 | CCOc1cc2nc(C3CCN(C)C(=O)C3)cn2cc1NC(=O)c1cccc(C(F)F)n1 (racemic) [Example 75, 6-(difluoromethyl)-N-(7-ethoxy-2-(1-methyl-2-oxopiperidin-4-yl)imidazo[1,2-a]pyridin-6-yl)picolinamide]
– | 0.011 | Cc1cc(NC(=O)c2cccc(C(F)F)n2)cn2cc(C3CCOCC3)nc12 [Example 410, 6-(difluoromethyl)-N-(8-methyl-2-(tetrahydro-2H-pyran-4-yl)imidazo[1,2-a]pyridin-6-yl)picolinamide 2,2,2-trifluoroacetate]
– | 0.001 | CCOc1cc2nc(C3CCOC(C)(C)C3)cn2cc1NC(=O)c1cccc(C(F)(F)F)n1 (stereo not drawn) [Example 113, N-(2-(2,2-dimethyltetrahydro-2H-pyran-4-yl)-7-ethoxyimidazo[1,2-a]pyridin-6-yl)-6-(trifluoromethyl)picolinamide]
– | 0.001 | O=C(Nc1cn2cc(C3CCOCC3)nc2cc1OC1CCCC1)c1cccc(C(F)F)n1 [Example 175, N-(7-(cyclopentyloxy)-2-(tetrahydro-2H-pyran-4-yl)imidazo[1,2-a]pyridin-6-yl)-6-(difluoromethyl)picolinamide]
– | 0.016 | CCOc1cc2nc(CC)cn2cc1NC(=O)c1cccc2c1OCCN2C [Example 39, N-(7-ethoxy-2-ethylimidazo[1,2-a]pyridin-6-yl)-4-methyl-3,4-dihydro-2H-benzo[b][1,4]oxazine-8-carboxamide]
– | 0.025 | CCOc1cc2nc(C3CCOCC3)cn2cc1NC(=O)c1cccc(C)c1 [Example 229, N-(7-ethoxy-2-(tetrahydro-2H-pyran-4-yl)imidazo[1,2-a]pyridin-6-yl)-3-methylbenzamide]
– | 0.002 | CCOc1cc2nc(CC3CCOC3)cn2cc1NC(=O)c1coc(-c2cnn(C)c2)n1 (single isomer, unassigned) [Example 251, N-(7-ethoxy-2-((tetrahydrofuran-3-yl)methyl)imidazo[1,2-a]pyridin-6-yl)-2-(1-methyl-1H-pyrazol-4-yl)oxazole-4-carboxamide]
– | 0.016 | COc1cc(NC(=O)c2cccc(C(F)F)n2)cn2cc(C3CC3(F)F)nc12 (single isomer, unassigned) [Example 514, N-(2-(2,2-difluorocyclopropyl)-8-methoxyimidazo[1,2-a]pyridin-6-yl)-6-(difluoromethyl)picolinamide]
– | 0.004 | COc1cc(NC(=O)c2cccc(C(F)F)n2)cn2cc(C34CC(C(F)F)(C3)C4)nc12 [Example 512, 6-(difluoromethyl)-N-(2-(3-(difluoromethyl)bicyclo[1.1.1]pentan-1-yl)-8-methoxyimidazo[1,2-a]pyridin-6-yl)picolinamide 2,2,2-trifluoroacetate]
– | 0.011 | COc1cc(NC(=O)c2cccc(C(F)F)n2)cn2cc(C34COC(C3)C4)nc12 [Example 544, N-(2-(2-oxabicyclo[2.1.1]hexan-4-yl)-8-methoxyimidazo[1,2-a]pyridin-6-yl)-6-(difluoromethyl)picolinamide 2,2,2-trifluoroacetate]
